Laboratory results: US5972698A, “Tryptase inhibitor” (Novartis Corporation, priority 1993, dated 1999)
*1 amine or outer side, *2 acyl side, *3 side chain or, on linkers, in order; H or OH if unused. Where a SMILES comes first, the peptide text is derived from it. CO = O=C([*:1])[*:2]

What was measured:
Human tryptase = conditions: cited from earlier work
[1] = Isoelectric focussing (PhastSystem); type: physicochemical
Protocol: a) SDS-PAGE and isoelectric focussing (IEF) SDS-PAGEs of the proteins were performed with 15-25% polyacrylamide gels following the procedure of Laemmli [Laemmli, 1970]. The gels were either self-prepared and run in a conventional apparatus or in the PhastSystem (Pharmacia, Sollentuna, Sweden). Isoelectric focussing was also done with the PhastSystem using the isoelectric focussing calibration kit pH 3-10.

Tryptase (human) = experiment: Inhibition of the amidolytic activity of tryptase / equilibrium dissociation constants (Ki); type: biochemical
Protocol: h) Inhibitory activity: During the purification procedure the inhibitor was followed by measurements of its effect on the amidolytic activity of tryptase. Therefore, samples were incubated with tryptase (0.59 nM) in 50 mM Tris/HCl (pH 7.6), 150 mM NaCl, 50 μg/ml bovine lung heparin, and 0.1% (w/v) bovine serum albumin for 25 min at 37° C. The assay was started by addition of the substrate tos-Gly-Pro-Arg-pNa at a final concentration of 0.1 mM. The released nitroaniline was monitored spectrometrically at 405 nm for 3.5 min using a UVIKON 930 photometer (Kontron; Eching, Germany).
k) Determination of equilibrium constants: To determine the specificity of the inhibitor, its effect on the amidolytic activity of various serine proteinases (see Tab. 5) was determined. […] The residual enzyme activity was measured after addition of a suitable substrate.
Equilibrium dissociation constants (Ki) for the complexes of the inhibitor with individual proteases were determined essentially as described by Bieth [Bieth, 1980]. Briefly, increasing concentrations of the inhibitor were incubated with a constant concentration of the enzyme; the time necessary to reach equilibration of the enzyme-inhibitor complex was determined for each protease in preliminary experiments. Substrate was then added, and the residual enzyme activity measured. […]

Compound	inhibition of tryptase (literature) (Human tryptase)	other results
CC(C)[C@H](NC(=O)[C@H](CCCNC(=N)N)NC(=O)N[C@@H](Cc1ccccc1)C(=O)O)C(=O)N[C@H](C=O)CCCNC(=N)N [antipain] ({Phe-CO}-Arg-Val-Arg-aldehyde)	–	Ki values for the complexes with tryptase (literature) (Human tryptase): micromolar range
CC(=O)N[C@@H](CC(C)C)C(=O)N[C@@H](CC(C)C)C(=O)N[C@H](C=O)CCCNC(=N)N [leupeptin]	–	Ki values for the complexes with tryptase (literature) (Human tryptase): micromolar range
O=S(=O)(F)Cc1ccccc1 [phenylmethylsulfonyl fluoride]	inhibited	–
C1 -esterase inhibitor: naturally occurring antiproteinase	not inhibited	–
alpha1 -proteinase inhibitor: naturally occurring antiproteinase	not inhibited	–
alpha2 -macroglobulin: naturally occurring antiproteinase	not inhibited	–
antithrombin III	not inhibited	–
aprotinin	not affected	–
ecotin: proteinase inhibitor	not affected	–
hirudin	not affected	–
rLDTI-C: recombinant form C inhibitor expressed in Saccharomyces cerevisiae with secretion vector pVT102U/alpha and strain S-78 (KKVCACPKILKPVCGSDGRTYANSCIARCNGVSIKSEGSCPTGILN)	–	isoelectric point [1]: > 10 pH; Ki (Tryptase (human); Ki for the inhibition of two of the four subunits of the tryptase-tetramer, substrate Tos-Gly-Pro-Arg-pNA, read-out: Ki (second Ki column)): 1.9 nM; maximal inhibition of human tryptase (Tryptase (human); substrate tos-Gly-Pro-Arg-pNa): ~ 50%
tosyl-L-lysine chloromethyl ketone	inhibited	–
